The data set can be described thus: recombinant UMI read abundance after kanamycin selection (control-corrected) (log10(CPM+1)); higher = more efficient recombination; extreme values may be limits of the assay; sequences stand for … in AGTGCAGAGAAAATCGGCCAGTTTTCTCTGCCTGCAGTCCGCATGCCGTGGGACCCCTTGGGTTCTAACCTGTTGCCTAGATTTATGCAGCGGACTGCCTTTCTCCCAAAGTGATAAACCGG…AGGTTGGTTTCACT; site = the 11-nt donor. Summed up: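 Pooled Escherichia coli screen of donor and donor-binding-loop pairs for the IS621 bridge recombinase. Each pair sits with a 12-nt UMI on a plasmid carrying a promoterless kanamycin gene. The library was co-electroporated with a target plasmid encoding a fixed target and T7-inducible recombinase, then plated with IPTG (0.07 mM) plus kanamycin, or unselected, each in two replicates. Recombinant UMIs were PCR-amplified across the donor–target junction and sequenced. Counts became CPM, averaged over replicates, scaled by control-derived factors and reported as log10(CPM+1).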
With “ATGGAGTCATGGACCGGTTTTCCCGGTAATCCGTATTTGGA (site ATGGAGTCTTC)”, the “recombinant UMI read abundance (log10)” value came out at 2.86. The same measure for “ATGGGAGCATGGACCGGTTTTCCCGGTAATCCGTATTTGCT (site ATGGGAGCTAG)”: 2.19; for “ATGGGCTCATGGACCGGTTTTCCCGGTAATCCGTATTTGTC (site ATGGGCTCTGA)”: 2.97. Consider “ATGGGGTCATGGACCGGTTTTCCCGGTAATCCGTATTTGAC (site ATGGGGTCTGT)”, for which the “recombinant UMI read abundance (log10)” value was determined as 3.47.

With “ATGGTTCCATGGACCGGTTTTCCCGGTAATCCGTATTTGTC (site ATGGTTCCTGA)”, the “recombinant UMI read abundance (log10)” value worked out at 1.67.

With “ATGTACACATGGACCGGTTTTCCCGGTAATCCGTATTTGAA (site ATGTACACTTT)”, the “recombinant UMI read abundance (log10)” value was determined as 1.82. “ATGTAGACATGGACCGGTTTTCCCGGTAATCCGTATTTGGC (site ATGTAGACTGC)”: the “recombinant UMI read abundance (log10)” value amounted to 2.91.

On to “ATGTAGACATGGACCGGTTTTCCCGGTAATCCGTATTTGGC (site ATGTAGCCTGC)”, for which the “recombinant UMI read abundance (log10)” value turned out to be 0. In the case of “ATGTAGACATGGACCGGTTTTCCCGGTAATCCGTATTTGGC (site ATGTAGGCTGC)”, the “recombinant UMI read abundance (log10)” value turned out to be 2.14.

For the sequence “ATGTAGACATGGACCGGTTTTCCCGGTAATCCGTATTTGGC (site ATGTAGTCTGC)”, the “recombinant UMI read abundance (log10)” value came to 1.67. Turning to “ATGTAGCCATGGACCGGTTTTCCCGGTAATCCGTATTTGTT (site ATGTAGCCTAA)”, the “recombinant UMI read abundance (log10)” value was 0.171.

As for “ATGTAGGCATGGACCGGTTTTCCCGGTAATCCGTATTTGAC (site ATGTAGGCTGA)”, the “recombinant UMI read abundance (log10)” value worked out at 2.33. Turning to “ATGTAGGCATGGACCGGTTTTCCCGGTAATCCGTATTTGAC (site ATGTAGGCTGC)”, the “recombinant UMI read abundance (log10)” value was 1.87. “ATGTAGGCATGGACCGGTTTTCCCGGTAATCCGTATTTGAC (site ATGTAGGCTGG)”: the “recombinant UMI read abundance (log10)” value is 1.57. Turning to “ATGTAGGCATGGACCGGTTTTCCCGGTAATCCGTATTTGAC (site ATGTAGGCTGT)”, the “recombinant UMI read abundance (log10)” value is 3.04. Take “ATGTAGTCATGGACCGGTTTTCCCGGTAATCCGTATTTGGC (site ATGTAGACTGC)”: the “recombinant UMI read abundance (log10)” value was 1.85.

On to “ATGTAGTCATGGACCGGTTTTCCCGGTAATCCGTATTTGGC (site ATGTAGCCTGC)”, for which the “recombinant UMI read abundance (log10)” value is 0. Consider “ATGTAGTCATGGACCGGTTTTCCCGGTAATCCGTATTTGGC (site ATGTAGGCTGC)”, for which the “recombinant UMI read abundance (log10)” value is 0. For the sequence “ATGTAGTCATGGACCGGTTTTCCCGGTAATCCGTATTTGGC (site ATGTAGTCTGC)”, the “recombinant UMI read abundance (log10)” value amounted to 3.26.

For the sequence “ATGTATGCATGGACCGGTTTTCCCGGTAATCCGTATTTGGC (site ATGTAAGCTGC)”, the “recombinant UMI read abundance (log10)” value turned out to be 1.52. With “ATGTATGCATGGACCGGTTTTCCCGGTAATCCGTATTTGGC (site ATGTACGCTGC)”, the “recombinant UMI read abundance (log10)” value is 1.51. Regarding “ATGTATGCATGGACCGGTTTTCCCGGTAATCCGTATTTGGC (site ATGTAGGCTGC)”, the “recombinant UMI read abundance (log10)” value is 0.86. For “ATGTATGCATGGACCGGTTTTCCCGGTAATCCGTATTTGGC (site ATGTATGCTGC)”, the “recombinant UMI read abundance (log10)” value is 3.22. The same measure for “ATGTCCTCATGGACCGGTTTTCCCGGTAATCCGTATTTGTA (site ATGTCCTCTTA)”: 2.5; for “ATGTCGTCATGGACCGGTTTTCCCGGTAATCCGTATTTGTA (site ATGTCGTCTTA)”: 1.95; for “ATGTGCCCATGGACCGGTTTTCCCGGTAATCCGTATTTGCG (site ATGTGCCCTCG)”: 0. On to “ATGTTCCCATGGACCGGTTTTCCCGGTAATCCGTATTTGTG (site AAGTTCCCTCA)”, for which the “recombinant UMI read abundance (log10)” value was 0.0217.

With “ATGTTCCCATGGACCGGTTTTCCCGGTAATCCGTATTTGTG (site ACGTTCCCTCA)”, the “recombinant UMI read abundance (log10)” value was determined as 0.0446. As to “ATGTTCCCATGGACCGGTTTTCCCGGTAATCCGTATTTGTG (site AGGTTCCCTCA)”, the “recombinant UMI read abundance (log10)” value stood at 0.0415. On to “ATGTTCCCATGGACCGGTTTTCCCGGTAATCCGTATTTGTG (site ATGTTCCCTCA)”, for which the “recombinant UMI read abundance (log10)” value was found to be 0.419. “ATGTTCGCATGGACCGGTTTTCCCGGTAATCCGTATTTGTA (site ATGTTCGCTTA)”: the “recombinant UMI read abundance (log10)” value was found to be 2.46.

On to “ATGTTTGCATGGACCGGTTTTCCCGGTAATCCGTATTTGAT (site ATGTTTGCTAT)”, for which the “recombinant UMI read abundance (log10)” value came to 2.16. Regarding “ATTAAACCATGGACCGGTTTTCCCGGTAATCCGTATTTGCC (site ATTAAACCTGG)”, the “recombinant UMI read abundance (log10)” value was 0. On to “ATTAAAGCATGGACCGGTTTTCCCGGTAATCCGTATTTGTA (site ATTAAAGCTTA)”, for which the “recombinant UMI read abundance (log10)” value amounted to 2.6.

The record behind these values is the supplement of paper PMC11208160.
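Note: IS621 bridge recombinase in Escherichia coli cells against a fixed T5 target plasmid.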
